Results on 3 compounds are retold here after patent US20210332024A1, “MODULATORS OF PIN1 ACTIVITY AND USES THEREOF” (Yeda Research and Development Co. Ltd., priority 2019, published 2021).

One assay addresses GST-Pin1 (Homo sapiens, UniProt Q13526). Description: Fluorescence polarization (FP) competition assay. To be noted: FP assay, competition with fluorescein-labeled peptide, 250 nM GST-Pin1; read-out: Ki (apparent). Type of assay: binding. Here is the method:
Binding affinity to Pin1 was determined using a fluorescence polarization assay to assess competition with an N-terminal fluorescein-labeled peptide (Bth-D-phosThr-Pip-Nal), which was obtained from JPT Peptide Technologies and Proteintech Group. The indicated concentrations of candidate compound were pre-incubated for 12 hours at 4° C. with a solution containing 250 nM glutathione S-transferase (GST)-Pin1, 5 nM of fluorescein-labeled peptide probe, 10 μg/ml bovine serum albumin, 0.01% Tween-20 and 1 mM DTT (dithiothreitol) in a buffer of 10 mM HEPES, 10 mM NaCl and 1% glycerol (pH 7.4). Measurements of FP were performed in black 384-well plates (Corning) using an EnVision™ reader. Apparent Ki values (under the tested conditions) obtained from the FP assay results were derived from the Kenakin Ki equation:
Kenakin Ki=(Lb)(EC50)(Kd)/(Lo)(Ro)+Lb(Ro−Lo+Lb−Kd)
Sittampalam G. S. et al., Eli Lilly & Company and the National Center for Advancing Translational Sciences, 2004].
Covalent labeling of Pin1 was confirmed to translate into enzyme inhibition via a fluorescence polarization (FP) competition assay using a FITC-labeled substrate mimetic peptide inhibitor, as well as a chymotrypsin-coupled PPIase assay, using procedures described in Wei et al. [Nat Med 2015, 21:457-466].
The fluorescent polarization assay was performed in a dose-dependent and time-dependent manner, in order to further characterize the kinetic parameters of Pin1-3 binding to Pin1.

A further assay concerns the target T1, Pin1 in PATU-8988T cells (Homo sapiens, UniProt Q13526).
T1 construct: endogenous in cells; host or cells: PATU-8988T
Description: Live cell competition assay with Pin1-3-DTB pull-down, PATU-8988T cells. The conditions noted are these: 0.25 to 1 μM for 5 hours (Pin1-3-AcA 1 μM). The format is cell-based. Here is the method:
(§1) The indicated cells were treated with increasing concentrations of either DMSO, Pin1-3, or Pin1-3-AcA for 5 hours. Cells were harvested by scraping and washed twice with PBS before lysis with 50 mM HEPES (pH 7.4), 1 mM EDTA, 10% glycerol, 1 mM TCEP, 150 mM NaCl, 1 mM EDTA, 0.5% NP-40, and protease inhibitor tablet (Roche cat. #4693159001). After clarifying (14,000 rpm for 15 minutes), samples were treated with the indicated concentrations of Pin1-3-DTB at 4° C. for 1 hour. Lysates were then incubated with streptavidin agarose resin (Thermo Scientific, cat. #20349) for 1.5 hour at 4° C. Beads were washed four times with 500 μl of washing buffer (50 mM HEPES (pH 7.5), 10 mM NaCl, 1 mM EDTA, 10% glycerol), then pelleted by centrifugation and dried. The beads were boiled for 5 minutes at 95° C. in 2×LDS+10% β-mercaptoethanol. Proteins of interest were then assessed via Western blotting using the bolt system (Life Technologies).
The indicated cells were plated in 10 cm plates with 2.5 million cells per plate in 6 ml of medium. The day after plating, cells were treated with the indicated concentrations of candidate inhibitor for the indicated time points. The cells were then washed two times with cold phosphate buffer saline (1 ml per 10 cm plate) and collected by scraping with a cell scraper. Cells were lysed in 50 mM HEPES (pH 7.4), 1 mM EDTA, 10% glycerol, 1 mM TCEP, 150 mM NaCl, 1 mM EDTA, 0.5% NP-40, and protease inhibitor tablet (Roche)-using 210 μl of cell lysis buffer per 10 cm plate of cells. After clarifying (14,000 rpm for 15 minutes), 9 μl of each lysate sample was combined with […] of 4×LDS+10% β-mercaptoethanol (in a ratio of 3:1), boiled for 5 minutes, and set aside for the input loading control. Then, 200 μl of each lysate sample was incubated with 1 μM of Pin1-3-DTB for 1 hour at 4° C. and processed as described hereinabove for the lysate pull-down assays.
In order to assess cell permeability of Pin1-3 as well as its ability to engage cellular Pin1, PATU-8988T cells were treated with Pin1-3 (0.25 to 1 μM) for 5 hours. After cell lysis, the lysates were incubated with Pin1-3-DTB (1 μM, 1 hour at 4° C.) and probe-labeled targets were pulled down with streptavidin beads.

In the next assay the target is T2, Pin1 in IMR32 cells (Homo sapiens, UniProt Q13526).
T2 construct: endogenous in cells; host or cells: IMR32
As to the kind of experiment: Live cell competition assay with Pin1-3-DTB pull-down, IMR32 cells. Type of assay: cell-based. To be noted: IMR32 cells, 0.25, 0.5 or 1 μM Pin1-3 or 1 μM Pin1-3-AcA. Here is the method:
as §1
The indicated cells were plated in 10 cm plates with 2.5 million cells per plate in 6 ml of medium. The day after plating, cells were treated with the indicated concentrations of candidate inhibitor for the indicated time points. The cells were then washed two times with cold phosphate buffer saline (1 ml per 10 cm plate) and collected by scraping with a cell scraper. […]

In assay [1] the test system is wild-type 8988T pancreatic cancer cells. Description: Organoid growth in Matrigel, wild-type PATU-8988T. The format is cell-based. To be noted: 1 μM, 9 days. Here is the method:
(§2) As three dimensional (3D) organoid models can reflect in vivo results better than monolayer cell culture [Baker et al., Trends Cancer Res 2016, 2:176-190], the anti-proliferative activity of Pin1-3 in PATU-8988T was further evaluated in wild-type or Pin1-knockout cells grown as organoids in Matrigel™ droplets. Cells were treated for 9 days with Pin1-3 (or Pin1-3-AcA or vehicle as a control), replenishing the compound in media every 3 days.

Assay [2] concerns Pin1-knockout pancreatic cancer cells. Description: Organoid growth in Matrigel, Pin1-knockout PATU-8988T. Type of assay: cell-based. To be noted: 1 μM, 9 days. Here is the method: as §2
In assay [3] the target is T3, Pin1 in PAT8988T cell lysates (Homo sapiens, UniProt Q13526).
T3 construct: endogenous in cells; host or cells: PATU-8988T
As to the kind of experiment: Lysate pull-down assay with Pin1-3-DTB. To be noted: 1 μM probe, 1 hour incubation in cell lysates. The format is binding. Here is the method: as §1

For a further assay, the target named is T4, catalytic domain of Pin1 (Homo sapiens, UniProt Q13526).
T4 construct: The purified catalytic domain of Pin1 was incubated with the fragment library
Description: Intact protein LC/MS labeling of Pin1. The format is binding. The conditions noted are these: 2 μM Pin1 with 2 μM test compound for 1 hour at room temperature. The protocol: 993 compounds were transferred to a 384-well plate working copy by combining 0.5 μl of 20 mM stock solution of four or five compounds per well. The catalytic domain of Pin1 (2 μM) in 20 mM Tris, 75 mM NaCl, pH 7.5 was incubated with 200 μM for each compound and moderately shaken for 24 hours at 4° C. The reaction was stopped by the addition of formic acid to 0.4% (v/v) final concentration.
Liquid chromatography/mass spectroscopy runs were performed on an Acquity™ UPLC® H-class system (Waters) in positive ion mode using electrospray ionization (ESI). UPLC separation was performed on a C4 column (300 Å, 1.7 μM, […]). The column was held at 40° C., and the autosampler at 10° C. Mobile solution A was 0.1% formic acid in water and mobile phase B was 0.1% formic acid in acetonitrile. Run flow was 0.4 ml/minute; and a gradient of 20% B for 2 minutes, increasing linearly to 60% B for 3 minutes, holding at 60% B for 1.5 minutes, changing to 0% B in 0.1 minute and holding at 0% for 1.4 minutes, was used. Desolvation temperature was 500° C. with a flow rate of 1000 liters/hour. The capillary voltage was 0.69 kV and cone voltage 46 V. Raw data was processed using OpenLynx™ software and deconvoluted using the MaxEnt tool. Labeling assignment was performed as described in Resnick et al. [J Am Chem Soc 2019, 141:8951-8968].
For the screening 2 μl of each of the 448 click products as 50 μM DMSO stocks were transferred into a 384-well plate working plate. 48 μl of catalytic domain of Pin1 (2 μM) in 20 mM Tris (pH 7.5) with 75 mM NaCl were added and moderately shaken and incubated for 15 minutes at room temperature. The reaction was stopped by the addition of formic acid to 0.4% (v/v) final concentration (20 μl). The mixtures were analyzed by liquid chromatography/mass spectroscopy analogously to the electrophile library incubations described herein. Hits were retrospectively analyzed by liquid chromatography/mass spectroscopy (LC-MS) to ensure reaction completion.
For each measured well, processed peaks were searched to match the mass of unlabeled protein or common small adducts of the unlabeled protein, which were found in the control sample or labeled protein. Labeling percentage for a compound was determined as the labeling of a specific compound divided by the overall detected protein species. Peaks whose mass could not be assigned were discarded from the overall labeling calculation. Data was analyzed using a python script for processing the MaxEnt-deconvoluted spectra. Peaks were normalized from ion counts to percentages, where the highest peak is defined as 100%. The unlabeled protein mass is deduced from a reference well that contains just the protein.
The purified catalytic domain of Pin1 was incubated with the fragment library (2 μM protein, 200 μM compound; 24 hours at 4° C.), followed by intact protein liquid chromatography/mass-spectrometry (LC/MS) to identify and quantify compound labeling. FIG. 1 depicts an example of a compound identified in this manner.
Based on the docking predictions, a total of 26 compounds that featured a range of small or bulky aliphatic, arylic, biphenylic or heterocyclic side-chains (structures depicted in FIG. 5), were synthesized or purchased. In order to identify potent binders, the irreversible labeling efficiency of these second-generation compounds was assessed alongside the original screening hits under more stringent conditions, with a 1:1 ratio of protein to compound (2 μM compound; 1 hour at room temperature).
For further optimization of the lipophilic moiety, an alkyne side chain-bearing analog was prepared, which was derivatized with 448 different azides using copper-catalyzed azide-alkyne cycloaddition (CuAAC).

A short description of assay [4]: Thiol reactivity assay (DTNB). Type of assay: physicochemical. The conditions noted are these: 200 μM compound, pH 7.4, 37° C. Here is the method: 50 μM DTNB (dithionitrobenzoic acid) was incubated with 200 μM TCEP (tris(2-carboxytehyl)phosphine) in 20 mM sodium phosphate buffer (pH 7.4) with 150 mM NaCl, for 5 minutes at room temperature, in order to obtain TNB^2− (thionitrobenzoate dianion). 200 μM compounds were subsequently added to the TNB^2−, followed by immediate UV absorbance measurement at 412 nm (at 37° C.). The UV absorbance was acquired every 15 minutes for 7 hours. The assay was performed in a 384-well plate using a Spark™ 10M plate reader (Tecan). Background absorbance of compounds was subtracted by measuring the absorbance at 412 nm of each compound under the same conditions without DTNB. Compounds were measured in triplicates. The data was fitted to a second order reaction equation such that the rate constant k is the slope of ln([A][B0]/[B][A0]), where [A0] and [B0] are the initial concentrations of the compound (200 μM) and TNB^2− (100 μM) respectively, and [A] and [B] are the remaining concentrations as a function of time, as determined from the spectrometric measurement. Linear regression using Prism® software was performed to fit the rate against the first four hours of measurements.
In order to estimate the influence of the various lipophilic moieties on “warhead” reactivity [Flanagan et al., J Med Chem 2014, 57:10072-10079; Lonsdale et al., J Chem Inf Model 2017, 57:3124-3137; Dahal et al., Medchemcomm 2016, 7:864-872], the thiol reactivity of the top ten binders of the second and third generation was assessed using a high-throughput assay previously applied to the entire fragment library, as described in Resnick et al. [J Am Chem Soc 2019, 141:8951-8968]. In brief, the second-order rate constant was evaluated for a model thiol, which reflects trends in general reactivity towards thiol groups.

The test system of the next assay is MDA-MB-231 cells. As to the kind of experiment: Cell viability assay (CellTiter-Glo). Type of assay: cell-based. To be noted: cell viability assay with MDA-MB-231 cells. The protocol:
MDA-MB-231 cells grew in DMEM medium supplemented with 10% FCS (fetal calf serum), 1% PS (penicillin-streptomycin) and 1% L-glutamine (all from Biological Industries). Exclusion of mycoplasma contamination was monitored and conducted by test with MycoAlert™ kit (Lonza). Cells were trypsinized and counted, and 1000 cells/well were plated in 50 μl of growth medium into 384-well white TC plates (Greiner) using Multidrop™ 384 (Thermo Scientific) Washer Dispenser II. The number of viable cells was monitored using CellTiter-Glo® Luminescent kit (Promega) in accordance with the manufacturer's protocol. Luminescence was measured using luminescence module of PHERAstar™ FS plate reader (BMG Labtech). Data analysis was performed using GeneData 12 analytic software. Assay ready plate preparation: Compounds transferred into black microplates (Greiner 784900) using Labcyte Echo® acoustic dispensing technology. Assay ready plates were then sealed with heat seals. If not used immediately, plates were frozen at −20° C. and held in polypropylene boxes with silica-gel desiccant.
Exemplary Pin1-binding compounds were also tested for non-selective cytotoxicity in a viability assay against IMR90 lung fibroblasts.

Sequence of GST-Pin1 (Q13526 whole entry): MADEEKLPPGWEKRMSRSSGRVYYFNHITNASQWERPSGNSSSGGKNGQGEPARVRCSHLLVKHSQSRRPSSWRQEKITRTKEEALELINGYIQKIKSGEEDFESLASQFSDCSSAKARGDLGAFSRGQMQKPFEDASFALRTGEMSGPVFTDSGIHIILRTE
T4 sequence (Q13526 52-163 limits assumed): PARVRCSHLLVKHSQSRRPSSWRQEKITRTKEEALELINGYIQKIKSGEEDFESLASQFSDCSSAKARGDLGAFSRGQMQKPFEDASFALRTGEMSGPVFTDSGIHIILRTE
T2 sequence (Q13526 whole entry): as the sequence (Q13526 whole entry) above
T1 sequence (Q13526 whole entry): as above
T3 sequence (Q13526 whole entry): as above

Take `CC(=O)N(CC(C)(C)C)C1CCS(=O)(=O)C1` (stereo not drawn) [Pin1-3-AcA, reference compound]: the Ki at GST-Pin1 is over 100000 nM. The “Competition with Pin1-3-DTB for Pin1 binding (pull-down)” value at Pin1 in PATU-8988T cells is “no competition”. Moreover, the “Engagement of Pin1 (competition with Pin1-3-DTB)” value on Pin1 in IMR32 cells was “does not”. Besides, the Organoid growth entry in assay [1] and in assay [2] was “no effect” in each case.
As for `CC1NC(=O)NC1CCCCCC(=O)NCCOCCOCCOCCC(=O)NCC(C)(C)CN(C(=O)CCl)C1CCS(=O)(=O)C1` (stereo not drawn) [Pin1-3-DTB], the Ki on GST-Pin1 worked out at 38 nM. For the same compound, the “Pull-down of Pin1 by the probe” value in [3] was “complete pull-down”.
`CC1(N(Cc2ccccc2)C(=O)CCl)CCS(=O)(=O)C1` (stereo not drawn) [Pin1-2-9]: the Ki on GST-Pin1 worked out at 83 nM. In addition, the “Labeling [%]” value on catalytic domain of Pin1 is reported as 43%. For the same compound, in assay [4], the “Reactivity Log k” value is −7.11 and the Reactivity k came to 7.68e-08 M⁻¹ s⁻¹. The compound further had an EC50 in the assay on MDA-MB-231 cells of 11300 nM.
